In data set [1] the test system is constitutive ERK phosphorylation in HCT-116 cells. The experiment in a line: HCT-116 AlphaLISA SureFire pERK1/2 cellular assay. The data set is classed as cell-based, human. The following applies: for IC50: Homo sapiens, read-out: pERK HCT116 (2 hr) Abs pIC50 (converted). A digest of the protocol: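 Cells seeded overnight (30,000/well for 2 h, 15,000/well for 24 h), then dosed in 1% FBS medium with a 10-point series from 1 μM top, 1/3 log steps, for 2 or 24 h at 37 °C. Lysates read by AlphaLISA for Thr202/Tyr204 pERK1/2; absolute IC50 versus DMSO control.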

The test system of data set [2] is BRAF monomers in A375 cells. The experiment in a line: A375 AlphaLISA SureFire pERK1/2 cellular assay (monomer). It counts as cell-based. The following applies: Homo sapiens, read-out: pERK A375 (1 hr) pIC50 (converted). Summed up: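 BRAF^V600E A375 melanoma cells seeded at 30,000/well in DMEM with 10% FBS, dosed without medium exchange in a 10-point series from 10 μM at 1/2-log steps, 1 h at 37 °C. Phospho-ERK1/2 (Thr202/Tyr204) measured in lysates by AlphaLISA SureFire; absolute IC50 relative to DMSO control.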

Data set [3] can be described thus: Plasma protein binding assay, mouse plasma (mPPB). The following applies: 5 μM. The data set is classed as in vitro ADME. A digest of the protocol:
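Equilibrium dialysis of 5 μM compound in previously frozen human or mouse plasma against phosphate buffer, 4 h at 37 °C. Both chambers quantified by LC-MS/MS; % free = (1−((PC−PF)/PC))×100.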

The mark [4] stands for this setting: HCT-116, HCT116 cells, 2 hr, Abs.
Where [5] appears, read: equilibrium dialysis 4 hours at 37° C.
Where [6] appears, read: HCT-116, HCT116 cells, 2 hr, absolute IC50.
Setting [7] is: equilibrium dialysis 4 hours 37° C.

Like-named read-outs stand apart in the source and are kept apart here.

For the compound `O=C(Nc1cc(Oc2ccc3c(c2)CC(c2nc(-c4ccccc4)c[nH]2)CO3)ccn1)C1CC1` (racemic) [Compound 136], the IC50 was 27.5 nM in data set [1] (setting [4]) and 162 nM in data set [2] (A-375, A375 cells, 1 hr). Further, in data set [3] (setting [5]), the “mPPB (% free)” value was determined as 0.2 % free.

Consider `O=C(Nc1cc(Oc2ccc3c(c2)CC(c2nc(-c4ccccc4)c[nH]2)CO3)ccn1)C1CC1` (centres unmarked) [Compound 45, N-[4-[3-(4-phenyl-1H-imidazol-2-yl)chroman-6-yl]oxy-2-pyridyl]cyclopropanecarboxamide], for which the IC50 in data set [1] (setting [6]) is 27.5 nM; in data set [2] (A-375, A375 cells, 1 hr), 162 nM. Moreover, in data set [3] (setting [7]), the “mPPB (% free)” value was found to be 0.2 % free.

In the case of `Cc1cc(-c2c[nH]c(C3COc4ccc(Oc5ccnc6c5CCC(=O)N6)cc4C3)n2)n(C2CC2)n1` (centres unmarked) [Compound 114, 5-[3-[4-(2-cyclopropyl-5-methyl-pyrazol-3-yl)-1H-imidazol-2-yl]chroman-6-yl]oxy-3,4-dihydro-1H-1,8-naphthyridin-2-one], the IC50 in data set [1] (setting [4]) is greater than 1000 nM; in data set [2] (A-375, A375 cells, 1 hr) it was 2570 nM. In addition, the “mPPB (% free)” value in data set [3] (setting [5]) is on record as 2.0 % free.

`O=C1CCc2c(Oc3ccc4c(c3)CN(C(=O)Nc3cccc(C(F)(F)F)c3)CC4)ccnc2N1` [Compound 50]: the IC50 is 46.8 nM in data set [1] (setting [6]) and 269 nM in data set [2] (A-375, A375 cells, 1 hr). Further, the “mPPB (% free)” value in data set [3] (setting [7]) is 1.6 % free.

With `COc1cc(-c2c[nH]c(C3COc4ccc(Oc5ccnc6c5CCC(=O)N6)cc4C3)n2)ccn1` (centres unmarked) [Compound 19, 5-[3-[4-(2-methoxy-4-pyridyl)-1H-imidazol-2-yl]chroman-6-yl]oxy-3,4-dihydro-1H-1,8-naphthyridin-2-one], the IC50 in data set [1] (setting [6]) is 316 nM; in data set [2] (A-375, A375 cells, 1 hr) it was 1620 nM. For the same compound, the “mPPB (% free)” value in data set [3] (setting [7]) was determined as 1.5 % free.

For `O=C1CCc2c(Oc3ccc4c(c3)CC(c3nc(C5CCOCC5)c[nH]3)CO4)ccnc2N1` (centres unmarked) [Compound 132, 5-[3-(4-tetrahydropyran-4-yl-1H-imidazol-2-yl)chroman-6-yl]oxy-3,4-dihydro-1H-1,8-naphthyridin-2-one], the IC50 was 347 nM in data set [1] (setting [4]) and 759 nM in data set [2] (A-375, A375 cells, 1 hr). For the same compound, the “mPPB (% free)” value in data set [3] (setting [5]) stood at 10.1 % free.

Take `CCn1nc(C)cc1-c1c[nH]c(C2COc3ccc(Oc4ccnc5c4CCC(=O)N5)cc3C2)n1` (centres unmarked) [Compound 124, 5-[3-[4-(2-ethyl-5-methyl-pyrazol-3-yl)-1H-imidazol-2-yl]chroman-6-yl]oxy-3,4-dihydro-1H-1,8-naphthyridin-2-one]: the IC50 is 347 nM in data set [1] (setting [4]) and 1070 nM in data set [2] (A-375, A375 cells, 1 hr). Moreover, the “mPPB (% free)” value in data set [3] (setting [5]) was 3.9 % free.

`Cc1cc(-c2c[nH]c(C3COc4ccc(Oc5ccnc6c5CCC(=O)N6)cc4C3)n2)n(C)n1` (centres unmarked) [Compound 106, 5-[3-[4-(2,5-dimethylpyrazol-3-yl)-1H-imidazol-2-yl]chroman-6-yl]oxy-3,4-dihydro-1H-1,8-naphthyridin-2-one]: the IC50 is 275 nM in data set [1] (setting [4]) and 933 nM in data set [2] (A-375, A375 cells, 1 hr). The “mPPB (% free)” value in data set [3] (setting [5]) was found to be 3.0 % free.

`O=C1CCc2c(Oc3ccc4c(c3)CC(c3nc(-c5ccnc(C(F)(F)F)c5)c[nH]3)CO4)ccnc2N1` (centres unmarked) [Compound 8, 5-[3-[4-[2-(trifluoromethyl)-4-pyridyl]-1H-imidazol-2-yl]chroman-6-yl]oxy-3,4-dihydro-1H-1,8-naphthyridin-2-one]: the “pERK HCT116 (2 hr) Abs pIC50” value in data set [1] (HCT116 cells, 2 hr, Abs) is 6.76. Besides, the IC50 in data set [1] (setting [6]) was 174 nM; in data set [2] (A-375, A375 cells, 1 hr), 316 nM. Also, the “mPPB (% free)” value in data set [3] (setting [7]) and in data set [3] (setting [5]) was 1.1 % free each time.

Take `O=C1CCc2c(Oc3ccc4c(c3)CC(c3nc(-c5ccnc(C(F)F)c5)c[nH]3)CO4)ccnc2N1` (centres unmarked) [Compound 101, 5-[3-[4-[2-(difluoromethyl)-4-pyridyl]-1H-imidazol-2-yl]chroman-6-yl]oxy-3,4-dihydro-1H-1,8-naphthyridin-2-one]: the IC50 in data set [1] (setting [4]) is 132 nM; in data set [2] (A-375, A375 cells, 1 hr), 204 nM. Besides, the “mPPB (% free)” value in data set [3] (setting [5]) was 1.1 % free.

For `O=C1CCc2c(Oc3ccc4c(c3)CC(c3nc5cc(C(F)(F)F)ccc5[nH]3)CO4)ccnc2N1` (centres unmarked) [Compound 22, 5-[3-[6-(trifluoromethyl)-1H-benzimidazol-2-yl]chroman-6-yl]oxy-3,4-dihydro-1H-1,8-naphthyridin-2-one], the IC50 was 141 nM in data set [1] (setting [6]) and 20 nM in data set [2] (A-375, A375 cells, 1 hr). Moreover, the “mPPB (% free)” value in data set [3] (setting [7]) is listed as less than 0.1 % free.

With `O=C1CCc2c(Oc3ccc4c(c3)CC(c3nc(-c5ccc(C(F)(F)F)nc5)c[nH]3)CO4)ccnc2N1` (centres unmarked) [Compound 127, 5-[3-[4-[6-(trifluoromethyl)-3-pyridyl]-1H-imidazol-2-yl]chroman-6-yl]oxy-3,4-dihydro-1H-1,8-naphthyridin-2-one], the IC50 was 417 nM in data set [1] (setting [4]) and 851 nM in data set [2] (A-375, A375 cells, 1 hr). In data set [3] (setting [5]), the “mPPB (% free)” value is on record as 0.2 % free.

Turning to `O=C(Nc1cc(Oc2ccc3c(c2)CC(c2nc(-c4ccc(F)cc4)c[nH]2)CO3)ccn1)C1CC1` (centres unmarked) [Compound 155, N-[4-[3-[4-(4-fluorophenyl)-1H-imidazol-2-yl]chroman-6-yl]oxy-2-pyridyl]cyclopropanecarboxamide], the IC50 in data set [1] (setting [4]) was 60.3 nM; in data set [2] (A-375, A375 cells, 1 hr), 117 nM. Further, the “mPPB (% free)” value in data set [3] (setting [5]) is given as 0.1 % free.

`O=C1CCc2c(Oc3ccc4c(c3)CN(C(=O)Nc3ccc(C(F)(F)F)cc3)CC4)ccnc2N1` [Compound 47]: the IC50 in data set [1] (setting [6]) is 69.2 nM; in data set [2] (A-375, A375 cells, 1 hr) it was 229 nM. For the same compound, the “mPPB (% free)” value in data set [3] (setting [7]) is 0.3 % free.

`O=C(Cn1ccnc1)Nc1cc(Oc2ccc3c(c2)CC(c2nc(-c4ccccc4)c[nH]2)CO3)ccn1` (centres unmarked) [Compound 144]: the IC50 is 45.7 nM in data set [1] (setting [4]) and 204 nM in data set [2] (A-375, A375 cells, 1 hr). In data set [3] (setting [5]), the “mPPB (% free)” value was found to be 0.8 % free.

Consider `O=C(CN1CC[C@@H](O)C1)Nc1cc(Oc2ccc3c(c2)CC(c2nc(-c4ccccc4)c[nH]2)CO3)ccn1` (some centres unmarked) [Compound 145], for which the IC50 was 166 nM in data set [1] (setting [4]) and 537 nM in data set [2] (A-375, A375 cells, 1 hr). The “mPPB (% free)” value in data set [3] (setting [5]) was 0.53 % free.

Consider `O=C(Cn1cncn1)Nc1cc(Oc2ccc3c(c2)CC(c2nc(-c4ccccc4)c[nH]2)CO3)ccn1` (centres unmarked) [Compound 154], for which the IC50 in data set [1] (setting [4]) is 28.2 nM; in data set [2] (A-375, A375 cells, 1 hr) it was 97.7 nM. In addition, the “mPPB (% free)” value in data set [3] (setting [5]) was determined as 0.7 % free.

With `O=C(CN1CCOCC1)Nc1cc(Oc2ccc3c(c2)CC(c2nc(-c4ccccc4)c[nH]2)CO3)ccn1` (centres unmarked) [Compound 149], the IC50 is 316 nM in data set [1] (setting [4]) and 1320 nM in data set [2] (A-375, A375 cells, 1 hr). Further, in data set [3] (setting [5]), the “mPPB (% free)” value came to 0.14 % free.

For `c1ccc(-c2c[nH]c(C3COc4ccc(Oc5ccnc(Nc6ccccn6)c5)cc4C3)n2)cc1` (centres unmarked) [Compound 140, 4-[3-(4-phenyl-1H-imidazol-2-yl)chroman-6-yl]oxy-N-(2-pyridyl)pyridin-2-amine], the IC50 in data set [1] (setting [4]) is greater than 1000 nM; in data set [2] (A-375, A375 cells, 1 hr), 5890 nM. For the same compound, in data set [3] (setting [5]), the “mPPB (% free)” value is 0.2 % free.

Regarding `N#Cc1ccc2[nH]c(C3COc4ccc(Oc5ccnc6c5CCC(=O)N6)cc4C3)nc2c1` (centres unmarked) [Compound 24], the IC50 in data set [1] (setting [6]) is 407 nM; in data set [2] (A-375, A375 cells, 1 hr), 562 nM. For the same compound, the “mPPB (% free)” value in data set [3] (setting [7]) is reported as 1.9 % free.

Regarding `O=C(Nc1cc(Oc2ccc3c(c2)CC(c2nc(-c4ccccc4)c[nH]2)CO3)ncn1)C1CC1` (centres unmarked) [Compound 151, N-[6-[3-(4-phenyl-1H-imidazol-2-yl)chroman-6-yl]oxypyrimidin-4-yl]cyclopropanecarboxamide], the IC50 in data set [1] (HCT-116, 2 h) is 178 nM; in data set [2] (A-375, 1 h) it was 347 nM. In addition, the “mPPB (% free)” value in data set [3] (setting [5]) was less than 0.1 % free.

The values above are taken from patent US12304912B2, “Fused bicyclic RAF inhibitors and methods for use thereof” (Jazz Pharmaceuticals Ireland Limited, priority 2020, dated 2025).
